Test system: KDR
Assay: Tyrosine autophosphorylation of KDRcyt mutants (antiphosphotyrosine Western blot)
Format: biochemical, human
Conditions: 1 mM ATP, 37° C., 10 min; Western blot with antiphosphotyrosine antibody PY20 (FIG. 4A)
Description: Purified KDRcytE848 and KDRcytV848 were incubated with at concentrations of 12 ng or 120 ng, respectively, or without 1 mM ATP at 37° C. for 10 min. The reaction was stopped by the addition of an equal volume of 2× SDS-PAGE sample buffer and boiled for 5 min. Reaction products were separated by 7.5%/SDS-PAGE and analyzed by Western blot probed with the antiphosphotyrosine antibody PY20 (Transduction Laboratories; FIG. 4A), or an anti-KDR antibody (Santa Cruz Biotechnology; FIG. 4B) visualized using the ECL detection kit and quantified by scanning with a densitometer (Molecular Dynamics).

GST-KDRcytV848: GST fusion of the human KDR cytoplasmic tyrosine kinase domain with Val at position 848 (SEQ ID NO:2)
autophosphorylation: resulted in autophosphorylation

Source: patent US6841367B2, “Human receptor tyrosine kinase, KDR” (Merck & Co., Inc., priority 1997, dated 2005)
